Data: ChEMBL document CHEMBL4813985, “Lead optimization generates selenium-containing miconazole CYP51 inhibitors with improved pharmacological profile for the treatment of fungal infections” (Eur J Med Chem, 2021)
In brackets after ≈: the same amount, converted by molar mass.

Tests used:
[Candida] zeylanoides = Antifungal activity against Candida zeylanoides CMGCC2.3739 measured after 24 hrs by broth microdilution assay; type: functional; details: Dujonia zeylanoides
Nakaseomyces glabratus = experiment: Antifungal activity against Candida glabrata measured after 24 hrs by broth microdilution assay; type: functional
Candida albicans [1] = experiment: Antifungal activity against fluconazole-resistant Candida albicans 901 assessed as inhibition of microbial growth after 24 hrs by broth microdilution method; type: functional
Pichia kudriavzevii = experiment: Antifungal activity against Candida krusei AS2.1045 measured after 24 hrs by broth microdilution assay; type: functional
Candida albicans [2] = experiment: Potency index, ratio of fluconazole MIC to test compound MIC for Candida albicans CPCC400616 measured after 24 hrs by broth microdilution assay; type: functional
Candida albicans [3] = experiment: Antifungal activity against fluconazole-resistant Candida albicans CaR assessed as inhibition of microbial growth after 24 hrs by broth microdilution method; type: functional
Candida albicans [4] = experiment: Antifungal activity against Candida albicans CPCC400616 measured after 24 hrs by broth microdilution assay; type: functional
Candida albicans [5] = experiment: Antifungal activity against fluconazole-resistant Candida albicans 904 assessed as inhibition of microbial growth after 24 hrs by broth microdilution method; type: functional
Candida albicans [6] = experiment: Antifungal activity against Candida albicans ATCC SC5314 measured after 24 hrs by broth microdilution assay; type: functional
Candida parapsilosis = experiment: Antifungal activity against Candida parapsilosis ATCC 22019 measured after 24 hrs by broth microdilution assay; type: functional; details: Lodderomyces parapsilosis
Cryptococcus neoformans = experiment: Antifungal activity against Cryptococcus neoformans CMGCC2.3161 measured after 72 hrs by broth microdilution assay; type: functional
Aspergillus fumigatus = experiment: Antifungal activity against Aspergillus fumigatus CMGCC3.7795 measured after 72 hrs by broth microdilution assay; type: functional
Candida albicans [7] = experiment: Antifungal activity against fluconazole-resistant Candida albicans 632 assessed as inhibition of microbial growth after 24 hrs by broth microdilution method; type: functional
Candida albicans [8] = experiment: Antifungal activity against fluconazole-resistant Candida albicans 17# assessed as inhibition of microbial growth after 24 hrs by broth microdilution method; type: functional
MCF-10A = experiment: Cytotoxicity against human MCF-10A cells assessed as reduction in cell viability incubated for 96 hrs by MTT assay; type: cell-based
PC-3 = experiment: Cytotoxicity against human PC3 cells assessed as reduction in cell viability incubated for 96 hrs by MTT assay; type: cell-based; details: PC-3, 96 h
HL-60 = experiment: Cytotoxicity against human HL-60 cells assessed as reduction in cell viability incubated for 96 hrs by MTT assay; type: cell-based; details: HL-60, 96 h
[9] = Hemolytic activity in rabbit RBC assessed as hemolysis ratio at 1 ug/ml measured after 3 hrs by microplate reader assay relative to control; type: ADME, cell-based, Oryctolagus cuniculus, Erythrocyte; details: rabbit red blood cells (erythrocytes), at 1 µg/mL, read-out: Activity
[10] = Hemolytic activity in rabbit RBC assessed as hemolysis ratio at 8 ug/ml measured after 3 hrs by microplate reader assay relative to control; type: ADME, cell-based, Oryctolagus cuniculus, Erythrocyte; details: rabbit red blood cells (erythrocytes), at 8 µg/mL, read-out: Activity
[11] = Hemolytic activity in rabbit RBC assessed as hemolysis ratio at 4 ug/ml measured after 3 hrs by microplate reader assay relative to control; type: ADME, cell-based, Oryctolagus cuniculus, Erythrocyte; details: rabbit red blood cells (erythrocytes), at 4 µg/mL, read-out: Activity
[12] = Hemolytic activity in rabbit RBC assessed as hemolysis ratio at 2 ug/ml measured after 3 hrs by microplate reader assay relative to control; type: ADME, cell-based, Oryctolagus cuniculus, Erythrocyte; details: rabbit red blood cells (erythrocytes), at 2 µg/mL, read-out: Activity
[13] = Hemolytic activity in rabbit RBC assessed as hemolysis ratio at 16 ug/ml measured after 3 hrs by microplate reader assay relative to control; type: ADME, cell-based, Oryctolagus cuniculus, Erythrocyte; details: rabbit red blood cells (erythrocytes), at 16 µg/mL, read-out: Activity
MDA-MB-231 = experiment: Cytotoxicity against human MDA-MB-231 cells assessed as reduction in cell viability incubated for 96 hrs by MTT assay; details: MDA-MB-231, 96 h

Row | SMILES | MIC ([Candida] zeylanoides) [µg/mL] | MIC (Nakaseomyces glabratus) [µg/mL] | MIC (Candida albicans [1]) [µg/mL] | MIC (Pichia kudriavzevii) [µg/mL] | Ratio (Candida albicans [2]) | MIC (Candida albicans [3]) [µg/mL] | MIC (Candida albicans [4]) [µg/mL] | MIC (Candida albicans [5]) [µg/mL] | MIC (Candida albicans [6]) [µg/mL] | MIC (Candida parapsilosis) [µg/mL] | MIC (Cryptococcus neoformans) [µg/mL] | MIC (Aspergillus fumigatus) [µg/mL] | MIC (Candida albicans [7]) [µg/mL] | MIC (Candida albicans [8]) [µg/mL] | also measured
1 | Cc1cccc(C)c1[Se]C(Cn1ccnc1)c1ccc(Cl)cc1Cl (centres undefined) | 4 (≈ 9.43 µM) | 0.13 (≈ 0.306 µM) | 16 | 2 (≈ 4.71 µM) | 8 | 4 | 0.13 (≈ 0.306 µM) | 8 | 0.06 (≈ 0.141 µM) | 0.5 (≈ 1.18 µM) | 0.5 (≈ 1.18 µM) | 8 (≈ 18.9 µM) | 8 | 4 | –
2 | COc1cccc([Se]C(Cn2ccnc2)c2ccc(Cl)cc2Cl)c1 (centres undefined) | 0.5 (≈ 1.17 µM) | 0.5 (≈ 1.17 µM) | 16 | 0.06 (≈ 0.141 µM) | 8 | 8 | 0.25 (≈ 0.587 µM) | 4 | 0.03 (≈ 0.0704 µM) | 0.5 (≈ 1.17 µM) | 0.25 (≈ 0.587 µM) | 8 (≈ 18.8 µM) | 16 | 2 | –
3 | Cc1ccc(C)c([Se]C(Cn2ccnc2)c2ccc(F)cc2F)c1 (centres undefined) | 0.5 (≈ 1.28 µM) | 0.5 (≈ 1.28 µM) | 4 | 0.13 (≈ 0.332 µM) | 8 | 8 | 0.25 (≈ 0.639 µM) | 8 | 0.06 (≈ 0.153 µM) | 0.13 (≈ 0.332 µM) | 0.25 (≈ 0.639 µM) | 8 (≈ 20.4 µM) | 2 | 4 | –
4 | Cc1cc(C)cc([Se]C(Cn2ccnc2)c2ccc(F)cc2F)c1 (centres undefined) | 0.5 (≈ 1.28 µM) | 0.5 (≈ 1.28 µM) | 4 | 0.13 (≈ 0.332 µM) | 8 | 2 | 0.13 (≈ 0.332 µM) | 8 | 0.03 (≈ 0.0767 µM) | 0.13 (≈ 0.332 µM) | 0.5 (≈ 1.28 µM) | 8 (≈ 20.4 µM) | 8 | 4 | –
5 | Fc1cccc([Se]C(Cn2ccnc2)c2ccc(F)cc2F)c1 (centres undefined) | 0.5 (≈ 1.31 µM) | 1 (≈ 2.62 µM) | 2 | 0.13 (≈ 0.341 µM) | 8 | 4 | 0.5 (≈ 1.31 µM) | 2 | 0.03 (≈ 0.0787 µM) | 0.25 (≈ 0.656 µM) | 0.5 (≈ 1.31 µM) | 8 (≈ 21 µM) | 1 | 4 | –
6 | Fc1ccc([Se]C(Cn2ccnc2)c2ccc(Cl)cc2Cl)cc1 (centres undefined) | 0.25 (≈ 0.604 µM) | 0.5 (≈ 1.21 µM) | 1 | 0.02 (≈ 0.0483 µM) | 8 | 8 | 0.25 (≈ 0.604 µM) | 1 | 0.03 (≈ 0.0724 µM) | 0.25 (≈ 0.604 µM) | 0.03 (≈ 0.0724 µM) | 8 (≈ 19.3 µM) | 1 | 2 | –
7 | CCc1ccccc1[Se]C(Cn1ccnc1)c1ccc(Cl)cc1Cl (centres undefined) | 0.5 (≈ 1.18 µM) | 0.13 (≈ 0.306 µM) | 4 | 0.5 (≈ 1.18 µM) | 8 | 2 | 0.25 (≈ 0.589 µM) | 1 | 0.03 (≈ 0.0707 µM) | 0.13 (≈ 0.306 µM) | 0.5 (≈ 1.18 µM) | 8 (≈ 18.9 µM) | 16 | 4 | –
8 | COc1cccc2c1C(=O)c1c(O)c3c(c(O)c1C2=O)C[C@@](O)(C(=O)CO)C[C@@H]3O[C@H]1C[C@H](N)[C@H](O)[C@H](C)O1 [DOXORUBICIN] | – | – | – | – | – | – | – | – | – | – | – | – | – | – | IC50 (MCF-10A): 2.64 µM; IC50 (PC-3): 0.64 µM; IC50 (HL-60): < 0.125 µM
9 | Cc1ccc(C)c([Se]C(Cn2ccnc2)c2ccc(Cl)cc2Cl)c1 (centres undefined) | 2 (≈ 4.71 µM) | 0.5 (≈ 1.18 µM) | 0.25 | 0.5 (≈ 1.18 µM) | 8 | 0.25 | 0.25 (≈ 0.589 µM) | 0.25 | 0.03 (≈ 0.0707 µM) | 0.5 (≈ 1.18 µM) | 0.5 (≈ 1.18 µM) | 16 (≈ 37.7 µM) | 0.5 | 0.13 | IC50 (MCF-10A; read-out: IC50): 27.2 µM; hemolysis at 3 h, 1 ug/ml [9]: 0%; hemolysis at 3 h, 8 ug/ml [10]: 100%; hemolysis at 3 h, 4 ug/ml [11]: 84.4%; IC50 (PC-3; read-out: IC50): 7.25 µM; hemolysis at 3 h, 2 ug/ml [12]: 0.89%; IC50 (HL-60): 6.95 µM; hemolysis at 3 h, 16 ug/ml [13]: 100%; IC50 (MDA-MB-231): 6.61 µM
